In patent publication US20170252278A1, “INHIBITION OF MATURATION OF DENTAL BIOFILM AND CARIOGENIC PROPERTIES” (KONINKLIJKE PHILIPS N.V., priority 2014, published 2017):

Assays:
Assay type in all cases: cell-based
[1] = tested on: in vitro oral plaque biofilms; experiment: Microbial composition of biofilms by 16S rDNA sequencing; conditions: for Actinobacillus, share of biofilm composition / Actinomyces, share of biofilm composition / Campylobacter, share of biofilm composition / Fusobacterium, share of biofilm composition / Granulicatella, share of biofilm composition / Haemophilus, share of biofilm composition / Megasphaera, share of biofilm composition / Neisseria, share of biofilm composition / Other taxa, share of biofilm composition / Porphyromonas, share of biofilm composition / Prevotella, share of biofilm composition / Rothia, share of biofilm composition / Solobacterium, share of biofilm composition / Streptococcus, share of biofilm composition / Unclass. Pasteurellaceae, share of biofilm composition / Veillonella, share of biofilm composition: 3-Oxo-N 100 μM, furanones 10 μM
Method: DNA was isolated using phenol bead-beating followed by Agowa isolation, following the manufacturers instructions (LGC Genomics, Mag mini kit). Briefly, cells were mechanically disrupted four times at 1200 rpm for two minutes in addition of Tris-saturated Phenol, pH8, 0.1 mm zirconium beads and Mag lysis buffer. The DNA-containing phase was mixed with binding buffer and magnetic beads. DNA concentration was estimated by determining the absorbance at 260 nm using the nanodrop (Isogen, ND-1000).
PCR was performed in a final volume of 25 μl containing 1 μl of each primer ([…]), 1 μl dNTP (10 mM), 2.5 μl 10× DreamTaq Buffer including MgCl2 (Thermo Scientific), 0.2 μl DreamTaq DNA Polymerase (5 u/μ1, Thermo Scientific) and 50 ng of DNA. Initial denaturation was performed at 94° C. for 4 min, followed by 35 cycles of denaturation at 94° C. for 30 s, 54° C. annealing for 1 min, 72° C. for 1 min primer extension and a final extension at 72° C. for 5 min. Product formation was confirmed by electrophoresis of 5 μl on a 1% (w/v) agarose gel (Sphearo Q, Leiden, The Netherlands) stained with ethidium bromide.
These samples were analyzed by 16S rDNA Illumina sequencing at TNO Zeist (Netherlands).
Table 3. Microbial composition of biofilms grown for 48 (Table 3A) or 96 h (Table 3B) in the presence of different QS inhibitors. Composition was determined by 16S rDNA sequencing. The composition of the original inoculum used for all biofilms was also determined. “Unclass.” means: unclassified.

[2] = tested on: in vitro oral plaque biofilms; experiment: Lactic acid production assay of in vitro oral plaque biofilms
Method: All compounds tested of Table 1 were obtained from Sigma Aldrich. All compounds of Table 2, except 3-oxo-N(2oxocyclohexyl)dodecanamide, were kindly provided by M. Meijler, University of the Negev, Israel. The compounds were dissolved in DMSO and stored at −20 C. The compounds were continuously present at the indicated concentrations during biofilm growth, but not during further phenotypic analysis, i.e. lactate production.
(§1) To estimate the cariogenic phenotype, lactic acid production of the in vitro oral plaque biofilms was determined prior to harvesting (Exerkate et al 2010). In short, the biofilms on coverslips were placed in a 24-well plate containing 1.5 ml of BPW with 0.2% sucrose. Lactic acid formation was allowed for 3 hr at 37° C. under anaerobic conditions. The total amount of lactic acid produced in this period was analyzed using a colorimetric assay described previously (van Loveren et al. (2000)) and expressed as mM lactic acid, and as μM lactic acid per 1×10^6 CFU.
Biofilms were grown for 48 h in buffered McBain medium supplemented with 0.2% sucrose in the presence of 100 μM of one of the compounds. Medium was refreshed twice every day. […]

[3] = tested on: in vitro oral plaque biofilms; experiment: Lactic acid production of biofilms grown with 3-oxo-N(2-oxocyclohexyl)dodecanamide and C12-HSL (interference test); conditions: all concentrations (25 or 100 μM), with 0, 25 or 100 μM C12-HSL; 48 h growth
Method: as §1
In this experiment the effect of the quorum sensing molecule C12-HSL on the lactate reducing activity of 3-Oxo-N-(2-oxocyclohexyl)dodecanamide was tested. Biofilms were grown for 48 h in buffered McBain medium supplemented with 0.2% sucrose, in the presence of 0, or 25 or 100 μM 3-oxo-N(2-oxocyclohexyl)dodecanamide and 0, or 25 or 100 μM of C12-HSL. Medium was refreshed twice every day. After 48 h of growth, biofilms were transferred to BPW with 0.2% sucrose, and biofilms were allowed to produce lactate for 3 h.

[4] = tested on: in vitro oral plaque biofilms; experiment: In vitro oral plaque biofilm formation in the Amsterdam Active Attachment Model, CFU determination; conditions: for in vitro oral plaque biofilm formation, Colony Forming Units: FIG. 1
Method: Stimulated saliva, used as inoculum, was collected on ice from ten donors. Saliva was donated 24 h after last brushing. The saliva was diluted 2-fold with 60% sterile glycerol, aliquoted and stored at −80° C. Before use, a pooled sample was prepared by mixing 200 μl of thawed saliva of each donor and vortexing for 30 seconds. In vitro oral plaque biofilms were inoculated 1:50 with pooled saliva.
In vitro oral plaque biofilms were grown in the Amsterdam Active Attachment Model (AAA-model, Exterkate et al. (2010)), assembled with glass coverslips (diameter 12 mm; Menzel, Braunschweig, Germany). The model was inoculated for 8 h with pooled saliva in buffered semi-defined McBain medium (2.5 g/l mucin (Sigma, St Louis, Mo.), 2.0 g/l Bacto peptone (Difco, Detroit, Mich.), 2.0 g/l Trypticase peptone (BBL, Cockeysville, Md.), 1.0 g/l yeast extract (BD Diagnostic Systems, Sparks, Md.), 0.35 g/l NaCl, 0.2 g/l KCl, 0.2 g/l CaCl2, 1 mg/l hemin (Sigma, St. Louis, Mo., USA), and 2 mg/l vitamin K1 (McBain et al. (2005)), with 50 mmol/1 PIPES at pH 7.0), with 0.2% sucrose.
In vitro oral plaque biofilms were grown in the AAA-model for 48-96 h in the presence of the compounds tested. The model was inoculated with saliva and incubated anaerobically at 37° C. for 8 hours to allow microbes to attach to the glass coverslips. After 8 hours of attachment, the inoculation medium was refreshed and in vitro oral plaque biofilms were grown for 16 hours. This refreshment routine was repeated daily until the day of harvesting.
In vitro oral plaque biofilms were harvested by transferring the glass coverslips into 2 ml phosphate buffered saline (PBS). The biofilms were dispersed using a Vibracell VCX130 sonicator with a maximum of 130 Watts and 20 kHz (Sonics & Materials, Newtown, USA). Bio films were sonicated on ice for 1 minute with a pulse rate of 50% and pulses of 1 second. Vibration amplitude was set to 40%.
To estimate the amount of in vitro oral plaque biofilm formation, total anaerobic colony forming units were determined. Briefly, serial dilutions of the dispersed bio films were made and plated on tryptic soy agar blood plates. Plates were subsequently incubated anaerobically for 96 h at 37° C. and colony forming units were determined by counting the number of colonies for each dilution.

CCCCCCCCCC(=O)CC(=O)NC1CCCCC1=O (stereo not shown) [3-Oxo-N, 3-oxo-N-(2-oxocyclohexyl)dodecanamide]
Streptococcus reduced versus control ([1]; 100 μM, 48 h): more than 30% | Veillonella more abundant than in control ([1]; 100 μM, 48 h): 10% | change in Actinobacillus species versus control ([1]; 100 μM, 48 h): increase | Actinobacillus, share of biofilm composition ([1]; 48 h): 27.6% | Actinomyces, share of biofilm composition ([1]; 48 h): 0.0% | Campylobacter, share of biofilm composition ([1]; 48 h): 1.1% | Fusobacterium, share of biofilm composition ([1]; 48 h): 0.0% | Granulicatella, share of biofilm composition ([1]; 48 h): 0.0% | Haemophilus, share of biofilm composition ([1]; 48 h): 0.2% | Megasphaera, share of biofilm composition ([1]; 48 h): 0.0% | Neisseria, share of biofilm composition ([1]; 48 h): 0.0% | Other taxa, share of biofilm composition ([1]; 48 h): 0.1% | Porphyromonas, share of biofilm composition ([1]; 48 h): 0.0% | Prevotella, share of biofilm composition ([1]; 48 h): 0.0% | Rothia, share of biofilm composition ([1]; 48 h): 0.0% | Solobacterium, share of biofilm composition ([1]; 48 h): 0.0% | Streptococcus, share of biofilm composition ([1]; 48 h): 34.3% | Unclass. Pasteurellaceae, share of biofilm composition ([1]; 48 h): 0.6% | Veillonella, share of biofilm composition ([1]; 48 h): 36.0% | Actinobacillus, share of biofilm composition ([1]; 96 h): 12.0% | Actinomyces, share of biofilm composition ([1]; 96 h): 0.0% | Campylobacter, share of biofilm composition ([1]; 96 h): 7.2% | Fusobacterium, share of biofilm composition ([1]; 96 h): 0.0% | Granulicatella, share of biofilm composition ([1]; 96 h): 0.0% | Haemophilus, share of biofilm composition ([1]; 96 h): 0.1% | Megasphaera, share of biofilm composition ([1]; 96 h): 0.0% | Neisseria, share of biofilm composition ([1]; 96 h): 0.0% | Other taxa, share of biofilm composition ([1]; 96 h): 0.3% | Porphyromonas, share of biofilm composition ([1]; 96 h): 0.0% | Prevotella, share of biofilm composition ([1]; 96 h): 0.0% | Rothia, share of biofilm composition ([1]; 96 h): 0.0% | Solobacterium, share of biofilm composition ([1]; 96 h): 0.0% | Streptococcus, share of biofilm composition ([1]; 96 h): 28.7% | Unclass. Pasteurellaceae, share of biofilm composition ([1]; 96 h): 0.0% | Veillonella, share of biofilm composition ([1]; 96 h): 51.7% | lactate production (FIG. 4A) ([2]; 10 μM): significantly reduces | lactate production (FIG. 4A) ([2]; 100 μM): almost completely blocked | lactate production corrected for CFU (FIG. 4B) ([2]; 100 μM or 10 μM): still lower | total lactic acid production per biofilm (FIG. 2) ([2]; 100 μM, biofilms grown 48 h, 3 h in BPW with 0.2% sucrose): reduced lactic acid production | lactate production after 96 hours of growth ([2]; 96 hours of growth): the reducing effect was still present | total lactic acid production per biofilm vs control (FIG. 3) [3]: statistical significant difference | inhibitory concentration (concentration that completely inhibits oral plaque biofilm growth) [4]: above 800 μM | in vitro oral plaque biofilm formation, Colony Forming Units ([4]; 100 μM, control 1.5×10^9 CFU): up to 6.6×10^8 CFU | biofilm production (visible amount of biofilm) ([4]; Example 2, 100 μM, 48 h): normal amounts of biofilm | in vitro oral plaque biofilm formation, Colony Forming Units ([4]; all the other concentrations (below 100 μM), same as control): 1.5×10^9 CFU | effect on in vitro oral plaque biofilm formation ([4]; highest concentration tested (100 μM)): slightly affected
